# Reference: US20220305115A1 (JANSSEN SCIENCES IRELAND UNLIMITED COMPANY, priority 2019, published 2022)
# Legend:
# Format in all cases: cell-based
# IL12p40 = experiment: PBMC cytokine profiling assay, IL12-p40 induction; details: Homo sapiens, 24 h, human PBMCs, 24 hours incubation
# Experimental: (§1) Compounds were dissolved and stored in DMSO (Sigma-Aldrich, St. Louis, Mo.) at 10 mM concentration.
# (§2) Cryopreserved human PBMCs isolated from healthy donors were purchased from StemCell Technologies (Vancouver, Canada). Cell culture medium used was RPMI with L-Glutamine (Mediatech, Manassas, Va.) supplemented with 10% fetal bovine serum (Hyclone, GE Healthcare, Logan, Utah) and Penicillin-Streptomycin (Mediatech). Human TNFα, IL12p40, and IFNα2a 384-well Assay capture plates, standards, buffers and processing reagents were obtained from MesoScale Discovery Technologies (MSD; Rockville, Md.).
# (§3) Cryopreserved human PBMCs (1×10e8 cells/ml) were thawed at 37° C. and resuspended in 25 mL warm cell culture medium. The cells were pelleted at 200×g (Beckman Avanti J-E) for 5 min and resuspended in 20 mL of fresh culture media. Cells were counted using a Cellometer (Nexcelcom Bioscience), adjusted to 2×10e6 cells, and incubated for 2 hours in an incubator set at 37° C., 5% CO2 to recover from cryopreservation. […]
# (§4) Using a Biomek FX 384 well pipetting station (Beckman), conditioned culture medium (CCM) from the assay plate was transferred to MSD capture plates customized for each cytokine. […] MSD Read Buffer diluted to 2× in deionized water and 35 μL/well was added via Biomek FX instrument. The plates were read immediately in a MSD6000 reader. […]
# TNFα = experiment: PBMC cytokine profiling assay, TNFα induction; details: Homo sapiens, 24 h, human PBMCs, 24 hours incubation
# Experimental: as §1, §2, §3, §4
# IFNα = experiment: PBMC cytokine profiling assay, IFNα induction; details: Homo sapiens, 24 h, human PBMCs, 24 hours incubation
# Experimental: as §1, §2, §3, §4
# human TLR7 = biological target: T1, human TLR7 (Homo sapiens, UniProt Q9NYK1); experiment: HEK-Blue human TLR7 cell SEAP reporter assay (NF-κB activation); details: HEK-Blue human TLR7 cells, stimulation for 20 hours, Quanti Blue read at 640 nm
# T1 construct: host or cells: HEK-Blue human TLR7 cells (HEK293-derived reporter line)
# T1 sequence (Q9NYK1 27-1049): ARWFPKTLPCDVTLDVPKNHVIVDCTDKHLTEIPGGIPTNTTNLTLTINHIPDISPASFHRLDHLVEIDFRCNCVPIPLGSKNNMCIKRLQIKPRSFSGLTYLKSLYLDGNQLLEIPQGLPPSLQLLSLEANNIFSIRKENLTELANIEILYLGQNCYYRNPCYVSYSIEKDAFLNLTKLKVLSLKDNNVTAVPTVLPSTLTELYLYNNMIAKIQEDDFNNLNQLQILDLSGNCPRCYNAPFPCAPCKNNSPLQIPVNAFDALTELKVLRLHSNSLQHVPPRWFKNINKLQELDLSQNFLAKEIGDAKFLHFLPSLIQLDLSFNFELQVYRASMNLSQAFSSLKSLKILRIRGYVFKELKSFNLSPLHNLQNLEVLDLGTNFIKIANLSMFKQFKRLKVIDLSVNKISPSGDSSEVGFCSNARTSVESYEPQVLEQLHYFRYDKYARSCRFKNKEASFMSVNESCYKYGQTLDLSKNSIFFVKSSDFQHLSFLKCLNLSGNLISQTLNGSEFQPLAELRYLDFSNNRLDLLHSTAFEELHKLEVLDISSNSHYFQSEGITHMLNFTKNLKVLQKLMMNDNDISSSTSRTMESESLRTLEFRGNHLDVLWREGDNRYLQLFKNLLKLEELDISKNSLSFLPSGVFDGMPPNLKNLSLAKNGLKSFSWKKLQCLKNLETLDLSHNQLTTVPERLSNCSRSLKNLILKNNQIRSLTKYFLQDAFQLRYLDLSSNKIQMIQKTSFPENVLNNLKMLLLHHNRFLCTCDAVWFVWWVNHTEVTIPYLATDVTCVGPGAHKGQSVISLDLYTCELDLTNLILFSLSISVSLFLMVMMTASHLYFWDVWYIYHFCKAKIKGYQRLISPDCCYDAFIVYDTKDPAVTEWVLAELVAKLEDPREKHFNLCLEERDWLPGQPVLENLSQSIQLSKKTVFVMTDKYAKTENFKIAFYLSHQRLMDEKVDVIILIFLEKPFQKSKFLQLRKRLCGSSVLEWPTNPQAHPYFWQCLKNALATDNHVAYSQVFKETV
# Source text: (§5) For TLR8 and TLR7 activity testing, HEK-Blue human TLR8 or TLR7 cells (Invivogen, San Diego, Calif., USA) are used, respectively. These cells are designed for studying the stimulation of human TLR8 or TLR7 by monitoring the activation of NF-κB. A SEAP (secreted embryonic alkaline phosphatase) reporter gene is placed under the control of the IFN-b minimal promoter fused to five NF-κB and AP-1-binding sites. Therefore the reporter expression is regulated by the NF-κB promoter upon stimulation of human TLR8 or TLR7 for 20 hours. The cell culture supernatant SEAP reporter activity was determined using Quanti Blue kit (Invivogen, San Diego, Ca, USA) at a wavelength of 640 nm, a detection medium that turns purple/blue in the presence of alkaline phosphatase. EC50 values were determined using Activity Base analysis (ID Business Solution, Limited).
# human TLR8 = biological target: T2, human TLR8 (Homo sapiens, UniProt Q9NR97); experiment: HEK-Blue human TLR8 cell SEAP reporter assay (NF-κB activation); details: HEK-Blue human TLR8 cells, stimulation for 20 hours, Quanti Blue read at 640 nm
# T2 construct: host or cells: HEK-Blue human TLR8 cells (HEK293-derived reporter line)
# T2 sequence (Q9NR97 27-1041): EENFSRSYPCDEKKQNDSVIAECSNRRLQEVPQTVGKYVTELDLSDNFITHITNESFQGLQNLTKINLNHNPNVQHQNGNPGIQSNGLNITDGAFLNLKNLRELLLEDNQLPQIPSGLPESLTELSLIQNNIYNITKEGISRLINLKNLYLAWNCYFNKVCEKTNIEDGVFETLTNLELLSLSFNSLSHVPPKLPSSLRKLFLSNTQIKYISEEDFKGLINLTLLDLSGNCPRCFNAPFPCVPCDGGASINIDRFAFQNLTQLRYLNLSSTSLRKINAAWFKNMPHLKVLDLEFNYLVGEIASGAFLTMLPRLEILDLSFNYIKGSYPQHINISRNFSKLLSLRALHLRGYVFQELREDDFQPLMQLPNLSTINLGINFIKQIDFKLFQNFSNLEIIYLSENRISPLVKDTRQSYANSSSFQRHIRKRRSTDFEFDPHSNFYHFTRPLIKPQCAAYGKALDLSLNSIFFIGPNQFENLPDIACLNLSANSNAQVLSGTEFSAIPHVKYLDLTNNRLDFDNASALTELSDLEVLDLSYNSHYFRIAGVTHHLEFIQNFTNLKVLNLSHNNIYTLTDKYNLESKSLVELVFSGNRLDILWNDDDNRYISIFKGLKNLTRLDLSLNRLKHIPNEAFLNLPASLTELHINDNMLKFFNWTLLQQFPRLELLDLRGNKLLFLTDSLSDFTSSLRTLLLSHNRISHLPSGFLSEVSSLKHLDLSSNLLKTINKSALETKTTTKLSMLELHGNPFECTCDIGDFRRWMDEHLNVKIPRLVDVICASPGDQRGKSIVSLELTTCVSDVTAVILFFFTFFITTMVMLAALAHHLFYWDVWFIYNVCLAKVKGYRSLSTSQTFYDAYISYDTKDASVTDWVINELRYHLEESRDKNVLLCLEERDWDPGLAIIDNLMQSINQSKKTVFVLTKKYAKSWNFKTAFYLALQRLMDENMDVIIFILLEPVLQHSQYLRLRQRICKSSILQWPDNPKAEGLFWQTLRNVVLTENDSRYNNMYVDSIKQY
# Source text: as §5
EC50 (human TLR7),EC50 (human TLR8),Compound,AC50 (IL12p40),AC50 (TNFα),AC50 (IFNα)
–,–,CCCC[C@@H](Nc1nc(N)nc2cccnc12)[C@H](C)O [Compound 86],2400 nM,2900 nM,37400 nM
1860 nM,77 nM,"CCCN(CCC)C(=O)C1=Cc2ccc(-c3cccnc3)cc2N=C(N)C1 [VTX-133, reference compound]",–,–,–
3610 nM,39 nM,"CCCN(CCC)C(=O)C1=Cc2ccc(-c3cncnc3)cc2N=C(N)C1 [VTX-135, reference compound]",–,–,–
